Data published in patent EP1582583A2 (priority 2000, dated 2001).

Legend:
E. indica glypS EPSPS = target: T1, E. indica glypS EPSPS (Eleusine indica, UniProt Q95AK0); experiment: enzyme kinetics, Km(PEP) and Ki (glyphosate); format: biochemical; settings: apparent Km, saturating S3P
T1 sequence (Q95AK0 1-445): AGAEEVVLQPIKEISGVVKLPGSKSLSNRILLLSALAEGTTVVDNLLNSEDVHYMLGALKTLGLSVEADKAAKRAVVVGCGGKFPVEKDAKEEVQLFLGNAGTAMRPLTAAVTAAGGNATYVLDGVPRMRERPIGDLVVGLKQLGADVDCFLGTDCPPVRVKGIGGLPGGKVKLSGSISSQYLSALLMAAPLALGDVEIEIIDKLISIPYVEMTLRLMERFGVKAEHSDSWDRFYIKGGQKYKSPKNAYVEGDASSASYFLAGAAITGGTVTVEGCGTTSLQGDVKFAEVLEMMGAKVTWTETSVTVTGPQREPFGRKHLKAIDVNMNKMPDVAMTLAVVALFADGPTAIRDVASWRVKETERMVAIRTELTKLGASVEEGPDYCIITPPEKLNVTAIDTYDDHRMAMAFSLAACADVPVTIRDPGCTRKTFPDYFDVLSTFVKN
Protocol: Calculations, graphical representation, and statistical analysis of enzyme kinetic data are performed using GraFit version 3.0 software (Erithacus Software Ltd., Staines, U.K.).

[1] = target: native EPSPS from E. coli (Escherichia coli, UniProt P0A6D3); settings: read-out: apparent Ki for glyphosate; cited from earlier work
Chain of native EPSPS from E. coli (P0A6D3 whole entry): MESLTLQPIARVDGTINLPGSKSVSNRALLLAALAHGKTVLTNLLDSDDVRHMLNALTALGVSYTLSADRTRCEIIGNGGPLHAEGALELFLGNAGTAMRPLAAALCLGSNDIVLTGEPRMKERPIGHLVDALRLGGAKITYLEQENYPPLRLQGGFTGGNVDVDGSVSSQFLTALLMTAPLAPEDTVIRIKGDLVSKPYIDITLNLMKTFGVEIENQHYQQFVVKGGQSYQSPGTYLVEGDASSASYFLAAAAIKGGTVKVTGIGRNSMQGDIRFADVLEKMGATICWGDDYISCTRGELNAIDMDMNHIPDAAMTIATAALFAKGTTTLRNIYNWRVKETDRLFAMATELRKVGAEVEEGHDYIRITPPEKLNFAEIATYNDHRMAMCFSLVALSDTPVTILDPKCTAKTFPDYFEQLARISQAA

[2] = target: EPSPS activity in extracts from the glyphosate tolerant E. indica biotype (Eleusine indica, UniProt Q95AK1); settings: read-out: I50 (glyphosate); tolerant biotype plant extract; 0.5 mM PEP, 1 mM shikimate-3-phosphate, 25°C; Figure 4
Chain of EPSPS activity in extracts from the glyphosate tolerant E. indica biotype (Q95AK1 entry or part of it): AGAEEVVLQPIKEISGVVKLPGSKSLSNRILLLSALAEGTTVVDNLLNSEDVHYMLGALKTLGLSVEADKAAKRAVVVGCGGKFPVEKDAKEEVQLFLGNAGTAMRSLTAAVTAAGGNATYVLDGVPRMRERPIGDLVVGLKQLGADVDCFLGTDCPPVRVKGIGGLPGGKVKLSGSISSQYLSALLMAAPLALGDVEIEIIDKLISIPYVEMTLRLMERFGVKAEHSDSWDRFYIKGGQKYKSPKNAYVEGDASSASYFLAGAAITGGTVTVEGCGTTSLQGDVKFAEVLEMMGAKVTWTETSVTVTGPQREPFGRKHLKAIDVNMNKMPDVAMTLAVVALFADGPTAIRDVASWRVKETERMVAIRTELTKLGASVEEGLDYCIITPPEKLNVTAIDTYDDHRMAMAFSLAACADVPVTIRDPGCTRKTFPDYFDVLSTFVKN
Protocol: Preparation of extracts and radiometric EPSP synthase assays are performed using methods adapted from published procedures (Padgette et al., J. Biol. Chem. 266:22364-22369 (1991). Crown regions are dissected from whole plants, pulverized under liquid nitrogen with a mortar and pestle, then stored at -80°C prior to extraction. Homogenates are prepared from 0.5 g tissue per sample in 25 ml extraction buffer (100 mM TrisCl, 10 % glycerol, 1 mM EDTA, 1 mM benzamidine, 1 mM dithiothreitol, 1 mM 4-(2-aminoethyl)-benzenesulfonyl floride HCl, 0.1 mM leupeptin, pH 7.4) at 4°C using a model PT3000 Polytron homogenizer (Brinkman Instuments Inc., Westbury, NY). Debris is removed by 0.2 µm filtration, then the resulting supernatant is concentrated and desalted using an Ultrafree-15 centrifugal filtration unit (cat.# UFV2-BGC-10, Millipore Corp., Bedford, MA). Final sample volumes are approximately 0.5 ml. Protein concentrations are determined spectrophotometrically using the Bio-Rad protein assay reagent (cat.#500-0006, Bio-Rad Laboratories, Hercules, CA). EPSPS specific activities are determined by assaying 10 µl extract at 25°C for 5- 15 min. […] Reactions are quenched with the addition of 50 µl 9:1 ethanol: 0.1 M acetic acid. […]

[3] = system: E. coli SR481 cells transformed with pMON45364 (Ei.EPSPS:glypR); experiment: growth rates of transgenic E. coli on glyphosate containing media; format: cell-based; settings: growth (O.D.595) in minimal M9 media with 0.0, 0.5, 1.5 or 5.0 mM glyphosate; cells expressing EPSPS of tolerant biotype (pMON45364) versus sensitive biotype (pMON45365); Figure 3
Text: The EPSP synthase mature protein-coding regions isolated from the glyphosate tolerant and glyphosate sensitive E. indica biotypes, can be directly compared for their ability to confer tolerance to glyphosate in transgenic hosts. […] This was inserted by ligation to facilitate expression and cloning at the ATG start codon of an open reading frame.
These sequences are employed in RT-PCR reactions to generate expression cassettes suitable for cloning into pMON45337 cut with the restriction enzymes Nde1 and EcoR1. RT-PCR reactions are performed with total RNAs extracted from frozen crown samples using the RNeasy Plant Mini Kit (cat.# 74904, Qiagen Inc., Valencia, CA) per manufacturer's instructions. Oligo·dT-primed first-strand cDNAs are prepared from 5 µg samples of total RNA using the Superscript Pre-Amplification System (cat.# 18089-011, Life Technologies, Rockville, MD) per manufacturer's instructions. Two µl of first-strand cDNA are then used to generate E. indica EPSP synthase expression cassettes via polymerase chain reaction. The oligonucleotides are added in 50 µl RT-PCR reactions at a final concentration of 0.4 µM. […]

Compound: C=C(OP(=O)(O)O)C(=O)O [PEP, phosphoenolpyruvate]
- KmPEP (E. indica glypS EPSPS): 5 M

Compound: O=C(O)CNCP(=O)(O)O [glyphosate, N-phosphonomethylglycine]
- Ki [1]: 0.5 µM
- IC50 [2]: ~16 µM
- increase in tolerance to glyphosate [3]: approximately three-fold
